Reference: patent US20130184338A1, “PHENYLPROPYL CARBAMATE DERIVATIVES FOR USE IN PREVENTING OR TREATING MULTIPLE SCLEROSIS” (Bio-Pharm Solutions Co., Ltd., priority 2011, published 2013)

Columns and labels:
male mice (ICR) [1] = assay: Muscle relaxation: residence time on rotarod rotating at fixed speed (15 r.p.m.); assay type: in vivo; conditions: Mus musculus, ip; intraperitoneal, at time of maximum effect; 50% of activity vs vehicle only; read-out: MR test ED50, II = Fixed 15 r.p.m. Rotarod
male mice (ICR) [2] = assay: Muscle relaxation: grip strength; assay type: in vivo; conditions: Mus musculus, ip; intraperitoneal, at time of maximum effect; 50% of activity vs vehicle only; read-out: MR test ED50, III = Grip strength
Method: (§1) For testing, male mice (ICR) were purchased from ORIENT BIO INC. (Korea), divided into several groups with 6 mice in each group, and were adapted for 4-5 days. The mice having the weight ranging from 19 g to 26 g were employed for the test. The pharmacological effect of the test compounds on muscle relaxation was evaluated by Rotarod test, grip strength test, and muscular force (wire hang) test. All mice were adapted to the test environment at one hour before starting the tests. The pharmacological effects of all the test compounds were evaluated by administration through peritoneal cavity of the mice (10 ul/g, bw).
A grip strength test using the test animals' forelimbs was performed using an instrument equipped with triangle ring and designed so as to easily grip with the forelimbs of experimental animals, manufactured from Ugo Basile Inc. (Ugo Basile, Model47106, Italy). The test was conducted before and after administration of the compounds to evaluate the effects thereof. […] The mouse was made to grip the rod with its forelimbs, and its tail was pulled, where the force at which the mouse detached from the rod was recorded. The instrument indicated the force in grams. All of the mice were given […] for test, and the 3 highest values among the test opportunities were selected and the mean value was used as the test result. This experimentation was conducted according to the method described in the reference, ‘Nevins et al. (1993) Quantitative grip strength assessment as a means of evaluating muscle relaxation in mice. Psychopharmacol. 110: 92-96’.
(§2) The results of muscle relaxation activity of the phenyl carbamate compounds measured in above Experimental Examples 11.2 to 11.5 are shown in following Table 5.

male mice (ICR) [3] = assay: Muscle relaxation: endurance time on rotarod rotating at accelerated speed; assay type: in vivo; conditions: Mus musculus, ip; intraperitoneal, at time of maximum effect; 50% of activity vs vehicle only; read-out: MR test ED50, I = Acc. Rotarod
Method: as §1
At 24 hours before testing, the mice to be tested were preliminarily trained for 5 minutes on a rod rotating at the rate of 6 revolutions per a minute. The pharmacological effect on muscle relaxation of the test compounds were evaluated by observing the mice on a rod for 5 minutes, where the rod was accelerated from 4 to 40 revolutions per a minute during the test time. The endurance time that each mouse endures on the acceleratedly rotated rod without falling off from the rod was recorded. As test time for evaluation, a maximum of 5 minutes was applied. […] This experimentation was conducted according to the method described in the reference, ‘Monville et al. (2006) Comparison of incremental and accelerating protocol of the rotarod test for the assessment of motor deficits in the 6-OHDA model. J. Neurosci. Meth. 158: 219-223’.
as §2

male mice (ICR) [4] = assay: Muscle relaxation: wire hang; assay type: in vivo; conditions: Mus musculus; intraperitoneal, at time of maximum effect; 50% of activity vs vehicle only; read-out: MR test ED50, IV = Wire hang
Method: as §1
This experimentation was conducted using a metal wire of 30 cm in length, which was suspended between two pillars at a height of about 40 cm from the bottom covered with a soft pad. […] Each mouse was made to grip the wire using two forelimbs, and the elapse time before the mouse fell off from the wire to the pad on the bottom was recorded in seconds. Each mouse was given 5 opportunities for this test at an interval of 2 minutes period. The highest 3 records among the test opportunities were selected and the mean value was used as the test result. This experimentation was conducted according to the method described in the reference, ‘Jacqueline N. Crawley (1999) Behavioral phenotyping of transgenic and knockout mice: experimental design and evaluation of general health, sensory functions, motor abilities, and specific behavioral tests. Brain Res. 835: 18-26’.
as §2

male ICR mice = assay: MES (Maximal Electroshock Seizure) test in mice; conditions: Mus musculus, po; for ED50: read-out: MES test (po) ED50; for responders at 200 mg/kg: read-out: MES test (po) Protection %

SMILES	ED50 (male mice (ICR) [1])	ED50 (male mice (ICR) [2])	ED50 (male mice (ICR) [3])	ED50 (male mice (ICR) [4])	ED50 (male ICR mice)	responders at 200 mg/kg (male ICR mice)
C[C@@H](OC(N)=O)[C@H](O)c1ccccc1Cl [Compound 2, 1-(2-chlorophenyl)-(R)-1-hydroxypropyl-(R)-2-carbamate]	76.5 mg/kg	110 mg/kg	66.3 mg/kg	43.3 mg/kg	51 mg/kg	–
C[C@H](OC(N)=O)[C@H](O)c1ccccc1Cl [Compound 5, 1-(2-chlorophenyl)-(R)-1-hydroxypropyl-(S)-2-carbamate]	65.5 mg/kg	95 mg/kg	66.9 mg/kg	52.5 mg/kg	84.1 mg/kg	–
C[C@@H](OC(N)=O)[C@@H](O)c1ccccc1Cl [Compound 4, 1-(2-chlorophenyl)-(S)-1-hydroxypropyl-(R)-2-carbamate]	65 mg/kg	124 mg/kg	69.3 mg/kg	40 mg/kg	82.4 mg/kg	–
CNC(=O)OC(C)C(O)c1ccccc1Cl (racemic) [Compound 29, 1-(2-chlorophenyl)-1-hydroxypropyl-2-N-methylcarbamate]	41 mg/kg	46 mg/kg	30.2 mg/kg	38 mg/kg	–	75%
C[C@H](OC(=O)NC1CC1)[C@@H](O)c1ccccc1Cl [Compound 18, 1-(2-chlorophenyl)-(S)-1-hydroxypropyl-(R)-2-N-cyclopropylcarbamate]	61.2 mg/kg	87.4 mg/kg	59.2 mg/kg	29.5 mg/kg	–	100%
CCCNC(=O)O[C@@H](C)[C@@H](O)c1ccccc1Cl [Compound 16, 1-(2-chlorophenyl)-(S)-1-hydroxypropyl-(S)-2-N-propylcarbamate]	61.6 mg/kg	67.8 mg/kg	48.7 mg/kg	16.1 mg/kg	–	25%
